Test results reported in US9382433B2, “Ketocoumarins as photoinitiators and photosensitizers in printing inks and coatings” (SUN CHEMICAL CORPORATION, priority 2012, dated 2016).

Experiments:
[1] = Cure index of ink-jet magenta inks; settings: ketocoumarin 6.167% in Inventive Ink-Jet PI Blend, 84 mJ per pass, 70 m/min, rounded to nearest 0.5
Procedure: Magenta ink-jet inks were prepared to assess the performance of the inventive ketocoumarin materials an ink-jet ink formulation. The magenta ink formulation is based on 17.5% of a magenta pigment concentrate and a blend of difunctional monomers which includes propoxylated neopentylglycol diacrylate, dipropyleneglycol diacrylate, tripropylene glycol diacrylate (all at approximately 15%) and 2-(2-Vinyloxyethoxy)ethyl acrylate (at approximately 20%).
The inks were printed onto white PE TopTrans top-coated label substrate using a No. 2 K-Bar (red). The No. 2 K-bar gives a film thickness of about 12 μm. The inks were cured at 70 m/min using a Primarc UV rig fitted with a single 300 W/inch medium pressure mercury lamp, operating at full power (84 mJ per pass). Cure index was determined using the same cure index test described above for the black offset inks.
The cure index results in Table 12 were determined using the same test method as described for the black offset inks in Tables 7-9 with one exception; in Table 12 the cure index figures were rounded to the nearest 0.5 rather than to the nearest whole number. It should be noted that the cure index numbers are a representation of cure at a relatively low UV lamp dose compared to that used in a commercial application. A commercial application would typically use higher UV lamp dosage and all of the above formulations would perform adequately under these conditions. The experiments have been set up to highlight differences in cure and therefore have been carried out at relatively low cure dose. In the above experiments an ink with a cure index of less than 4-5 would cure adequately using commercial lamp conditions. Inks with a cure index of much lower than 4-5 are, therefore, performing very well.

[2] = Solubility by visual inspection of ink and prints; format: physicochemical; set-up: key: Good=Soluble (no solid bits in the ink and good printability); OK=Partially insoluble (some solid bits in the ink and slightly poor printability); Poor=Very noticeable insolubility (very noticeable solid bits in the ink and poor printability); settings: visual inspection of inks and prints
Procedure: The solubility of the materials was assessed by visual inspection of the inks and from visual inspection of the prints. Insolubility is reported as follows: Good=Soluble (no solid bits in the ink and good printability); OK=Partially insoluble (some solid bits in the ink and slightly poor printability); Poor=Very noticeable insolubility (very noticeable solid bits in the ink and poor printability).

[3] = Cure index (set-off cure test, sum of DL values); settings: Offset Black Ink 1; ketocoumarin 5.10% in Inventive PI Blend 1; ~32 mJ per pass, 100 m/min; lower is superior cure
Procedure: Offset Black Ink 1—based on a urea-formaldehyde resin, trifunctional acrylate and approximately 13% carbon black pigment.
(§1) The inks were printed onto a carton board substrate (Incada Exel coated board from Iggesund) to a density of approximately 1.8-2.0 using an IGT C1 print proofer. These were cured at 100 m/min using a Primarc UV rig fitted with a single 300 W/inch medium pressure mercury lamp, operating at half power (˜32 mJ per pass). The number of passes required to cure was measured by a “set-off cure test” which is done by visually comparing the extent to which after each pass the ink has transferred to a piece of blank substrate under 10 tons pressure for 5 seconds. […] The amount of set-off is then measured using color computer software, which determines the average color density of the set-off ink compared to a blank piece of substrate. The amount of set-off is measured as the lightness “DL” of the blank substrate vs. the transferred ink film, measured using a Spectraflash 650 spectrophotometer. The DL value is measured for each pass of the ink underneath the curing lamp, using a fresh piece of substrate for each pass until the ink is deemed fully cured and there is no visible ink transfer. The cure index is calculated by adding the individual DL values and rounding the sum to the nearest whole number. For example, if 4 passes under the curing lamp was required to cure a given ink film, and the DL values for the first 3 passes were 8.89, 5.27, 2.15 respectively, then the sum of the figures would be 16.31, which would be rounded to a cure index of 16. Note that there is no DL value taken after the 4th pass, as the ink film was determined to be fully cured by the visual absence of ink transferred during the set-off cure test. […] The tables below show the results for the evaluations.

[4] = Cure index (set-off cure test, sum of DL values); settings: Offset Black Ink 2; ketocoumarin 5.10% in Inventive PI Blend 2; ~32 mJ per pass, 100 m/min; lower is superior cure
From the text: Offset Black Ink 2—based on a ketone functional resin, tri- and tetra-functional alkoxylated acrylates and approximately 14% carbon black pigment.
as §1

[5] = Cure index (set-off cure test, sum of DL values); settings: Offset Black Ink 3; ketocoumarin 6.000% in Inventive PI Blend 3; ~32 mJ per pass, 100 m/min; lower is superior cure
From the text: Offset Black Ink 3—based on a ketone functional resin, tri- and tetra-functional alkoxylated acrylates and approximately 14% carbon black pigment.
as §1

SMILES	Solubility in Ink-Jet Magenta Ink [2]	Solubility in Offset Black Ink 1 [2]	Solubility in Offset Black Ink 2 [2]	Solubility in Offset Black Ink 3 [2]	Cure index [1]	Cure index [3]	Cure index [4]	Cure index [5]
COc1ccc2cc(C(=O)c3ccccc3)c(=O)oc2c1 [Comparative Example 2, reference compound]	Poor	Poor	Poor	Poor	<1	52	13	33
CCCCCCCCCCCCOC(=O)COc1ccc2cc(C(=O)c3ccccc3)c(=O)oc2c1 [Inventive Example 16]	Poor	OK	OK	OK	5	52	31	56
O=C(c1ccccc1)c1cc2ccccc2oc1=O [Comparative Example 1, reference compound]	Poor	Poor	Poor	Poor	38	28	24	27

The next lines start with results.

Solubility in Ink-Jet Magenta Ink [2]	Solubility in Offset Black Ink 1 [2]	Solubility in Offset Black Ink 2 [2]	Solubility in Offset Black Ink 3 [2]	SMILES	Cure index [1]	Cure index [3]	Cure index [4]	Cure index [5]
Good	–	–	–	O=C(COc1ccc2cc(C(=O)c3ccccc3)c(=O)oc2c1)OCCOCCOC(=O)COc1ccc2cc(C(=O)c3ccccc3)c(=O)oc2c1 [Inventive Example 5]	9	–	–	–
Poor	OK	OK	OK	CCOC(=O)COc1ccc2cc(C(=O)c3ccccc3)c(=O)oc2c1 [Inventive Example 12]	3	46	15	26
OK	OK	OK	OK	O=C(COc1ccc2cc(C(=O)c3ccccc3)c(=O)oc2c1)OCCOCCOCCOC(=O)COc1ccc2cc(C(=O)c3ccccc3)c(=O)oc2c1 [Inventive Example 11]	1	53	23	42
Poor	OK	OK	OK	CCC(COC(=O)COc1ccc2cc(C(=O)c3ccccc3)c(=O)oc2c1)(COC(=O)COc1ccc2cc(C(=O)c3ccccc3)c(=O)oc2c1)COC(=O)COc1ccc2cc(C(=O)c3ccccc3)c(=O)oc2c1 [Inventive Example 14]	1	28	7	14
